In patent publication US20220160651A1, “RAPIDLY IMPROVING ENDOTHELIAL FUNCTION, REDUCING ARTERIAL STIFFNESS AND REVERSING CALCIFICATION OF BLOOD VESSELS BY ADMINISTERING VITAMIN K” (KAYDENCE PHARMA AS, priority 2019, published 2022):

Key:
Assay type in all cases: in vivo
ApoE/LDLR−/− mice [1] = assay: Histological assessment of plaque size and composition and vessel wall area in BCA (Example 2); details: two months
Description: Plaque size and composition as well as vessel wall area (VWA) in BCA—Histological assessment, cross-section method, BCA cross-sections: total 13000 slides, Photographed: 1214 slides
For the determination of atherosclerotic plaque area and composition BCA was dissected, fixed in 4% buffered formalin and embedded in paraffin. 5 μm-thick serial sections of BCA were collected from proximal, middle and distal parts of artery. Originally developed staining with Unna's orcein combined with Martius, Scarlet and Blue trichrome (OMSB), was applied on every tenth section (50 μm interval between each section) for visualization of collagen, elastin, fibrin, red blood cells and vascular smooth muscle cells within atherosclerotic plaque. The areas of particular components of atherosclerotic plaque as well as artery lumen and wall were determined after Columbus-based software processing (FIG. 1B) using a previously developed algorithm [Gajda M, Jasztal A, Banasik T, Jasek-Gajda E, Chlopicki S. Combined orcein and martius scarlet blue (OMSB) staining for qualitative and quantitative analyses of atherosclerotic plaques in brachiocephalic arteries in apoE/LDLR−/− mice. Histochem Cell Biol 2017. doi:10.1007/s00418-017-1538-81.

ApoE/LDLR−/− mice [2] = assay: MRI assessment of endothelium-dependent vasodilatation (FMD in femoral artery, Ach response in abdominal aorta), young mice (Example 3)
Method: Mice were randomly assigned to one of four experimental groups: control (untreated group) and three groups treated with vitamin K2 at a dose of 0.05, 0.5, and 5 mg/kg b.w./day, respectively. End-point measurements were performed at the age of 10-16 weeks.
Magnetic resonance imaging (MRI) experiments were performed using a 9.4T scanner (BioSpec 94/20 USR, Bruker, Germany) located in the Department of Magnetic Resonance Imaging, Institute of Nuclear Physics, Polish Academy of Sciences in Krakow. During the experiment, mice were anaesthetized using isoflurane (Aerrane, Baxter Sp. z o. o., Poland, 1.7 vol %) in an oxygen and air (1:2) mixture and imaged in the supine position. Activity of the heart, respiration, and body temperature (maintained at 37° C. using circulating warm water) were monitored using a Monitoring and Gating System (SA Inc., Stony Brook, N.Y., USA).
Endothelial function was assessed based on vascular responses to acetylcholine (Ach) administration in brachiocephalic artery (BCA), left common carotid artery (LCA) (FIGS. 6 A and B) and abdominal aorta (AA) (FIG. 6C) as well as to responses to increase in flow (flow-mediated dilatation, FMD) in femoral artery (FA) (FIG. 6D) as described in Bar A, Skorka T, Jasinski K, Sternak M, Bartel Ż, Tyrankiewicz U, et al. Retrospectively-gated MRI for in vivo assessment of endothelium-dependent vasodilatation and endothelial permeability in murine models of endothelial dysfunction. NMR Biomed 2016; 29(8):1088.; Sternak M, Bar A, Adamski M G, Mohaissen T, Marczyk B, Kieronska A, et al. The Deletion of Endothelial Sodium Channel α (αENaC) Impairs Endothelium-Dependent Vasodilation and Endothelial Barrier Integrity in Endotoxemia in Vivo. Front Pharmacol 2018; 9:178. doi:10.3389/fphar.2018.00178.; and Bar A, Olkowicz M, Tyrankiewicz U, Kus E, Jasinski K, Smolenski R T, et al. Functional and Biochemical Endothelial Profiling In Vivo in a Murine Model of Endothelial Dysfunction; Comparison of Effects of 1-Methylnicotinamide and Angiotensin-converting Enzyme Inhibitor. Front Pharmacol 2017; 8:183. doi:10.3389/fphar.2017.00183.).
Vasomotor response was examined by comparing two time-resolved 3D images of the vessels prior to and 25 minutes after intraperitoneal Ach administration (Sigma-Aldrich, Poznan Poland: 50 μl, 16.6 mg/kg), as well as prior to and 5 minutes after vessel occlusion. Images were acquired using the cine IntraGate™ FLASH 3D sequence, reconstructed with the IntraGate 1.2.b.2 macro (Bruker). End-diastolic volumes of vessels were analyzed using ImageJ software 1.46r (NIH Bethesda, Md., USA) and scripts written in Matlab (MathWorks, Natick, Mass., USA). Imaging parameters included the following: repetition time (TR)—6.4 ms, echo time (TE)—1.4 ms, field of view (FOV) −30×30×5 mm3, matrix size—256×256×30, flip angle (FA)—30°, and number of accumulations (NA)—15, reconstructed to 7 cardiac frames. Total scan time was 10 minutes.

[3] = tested on: thrombin generation in platelet-poor mice plasma; assay: Thrombin generation by calibrated automated thrombogram (CAT); details: either dose (0.03 or 10 mg/kg b.w./day), eight weeks
Method: Thrombin generation was measured in platelet-poor mice plasma using calibrated automated thrombography (CAT) technique as described in Hemker H C, Giesen P, Al Dieri R, Regnault V, de Smedt E, Wagenvoord R, et al. Calibrated automated thrombin generation measurement in clotting plasma. Pathophysiol Haemost Thromb 2003; 33:4-15. doi:71636. Thrombin generation was activated by mixing 21 μl of diluted plasma (1:1 with BSAS buffer) with 7 μIL of fluorogenic substrate (Z-Gly-Gly-Arg-AMC, 16.6 mM) and 14 μl of trigger solution containing phospholipids, tissue factor and CaCl2 (4 μM, […] and 16.6 mM, respectively). In the calibration wells, the 14 μl of reagents were replaced with calibrator (102 nM). Immediately after the activation, 5 μl of the mixture was pipetted on paper disks in a flat bottom 96-well polystyrene plate and covered with 40 μl of mineral oil. Fluorescent signals were measured using the Fluoroskan Ascent software (Thermo Labsystems, Helsinki, Finland) and transformed into thrombin concentration as described in Hemker H C, Kremers R. Data management in Thrombin Generation. Thromb Res 2013; 131:3-11. doi:10.1016/j.thromres.2012.10.011. The parameters analyzed included endogenous thrombin potential (ETP), peak thrombin concentration (peak), and lag time.

[4] = 0.05 mg/kg b.w./day, eight weeks
[5] = 0.05 mg/kg b.w./day, four weeks, 15-week-old mice

## CC(C)=CCC/C(C)=C/CC/C(C)=C/CC/C(C)=C/CC/C(C)=C/CC/C(C)=C/CC/C(C)=C/CC1=C(C)C(=O)c2ccccc2C1=O [MK-7, menaquinone-7]
ApoE/LDLR−/− mice [1]; low and high dose (0.03 and 10 mg/kg b.w./day)
  decrease in vessel wall area (VWA) of BCA: about 5%
ApoE/LDLR−/− mice [1]; low and high dose
  decrease of lipid core expressed as percent of plaque: about 17%
ApoE/LDLR−/− mice [1]; low or high dose
  effect on plaque size: did not result in a beneficial effect on plaque size
  plaque and lumen area expressed as percent of IWA: did not change
ApoE/LDLR−/− mice [1]; lower dose 0.03 mg/kg b.w./day
  internal wall area (IWA): decreased only in the middle part of the vessel
ApoE/LDLR−/− mice [1]; treated vs untreated groups
  content of collagen in plaque: lack of differences between treated and untreated groups
ApoE/LDLR−/− mice [2]; [4]
  Ach response in AA, volume changes: −0.65%
  FMD in FA, volume changes: 28.34%
ApoE/LDLR−/− mice [2]; [5]
  Ach response in AA, volume changes: −1.59%
  FMD in FA, volume changes: 33.26%
ApoE/LDLR−/− mice [2]; 0.5 mg/kg b.w./day, two weeks
  Ach response in AA, volume changes: 1.52%
  FMD in FA, volume changes: 28.57%
ApoE/LDLR−/− mice [2]; 5 mg/kg b.w./day, two weeks
  Ach response in AA, volume changes: 0.16%
  FMD in FA, volume changes: 26.55%
[3]
  thrombin generation: did not affect
